Structures can show the parent of a compound that is named as a salt. Where two headings read alike, the source gives them in different places.
Legend:
[1] = test system: C5a induced chemotaxis of polymorphonucleate leukocytes (PMNs); test: C5a induced chemotaxis of human PMNs; type: cell-based; conditions: Leukocyte, 10^−8 M, Table 2
Protocol: (§1) The compounds of the invention of formula (I) were evaluated in vitro for their ability to inhibit chemotaxis of polymorphonucleate leukocytes (hereinafter referred to as PMNs) and monocytes induced by the fractions of CXCL8 and GRO-α and C5a and compared to the corresponding non fluorinated parent compounds. For this purpose, in order to isolate the PMNs from heparinized human blood, taken from healthy adult volunteers, mononucleates were removed by means of sedimentation on dextran (according to the procedure disclosed by W. J. Ming et al., J. Immunol., 138, 1469, 1987) and red blood cells by a hypotonic solution. The cell vitality was calculated by exclusion with Trypan blue, whilst the ratio of the circulating polymorphonucleates was estimated on the cytocentrifugate after staining with Diff Quick.
In the C5a induced chemotaxis assay the fractions hr-C5a and hrC5a-desArg (Sigma) were used as stimulating agents in chemotaxis experiments, obtaining practically identical results. Lyophilized C5a was dissolved in a volume of HBSS containing 0.2% BSA so as to obtain a stock solution having a concentration of 10^−5 M, to be diluted in HBSS to a concentration of 10^−9 M, for the chemotaxis assays.
(§2) In the chemotaxis experiments, the PMNs were incubated with the compounds of the invention of formula (I) for 15′ at 37° C. in an atmosphere containing 5% CO2.
The chemotactic activity of the C5a was evaluated on human circulating polymorphonucleates (PMNs) resuspended in HBSS at a concentration of 1.5×10^6 PMNs per nil.
(§3) During the chemotaxis assay (W. Falket et al., J. Immunol. Methods, 33, 239, 1980) PVP-free filters with a porosity of 5 μm and microchambers suitable for replication were used.
(§4) The compounds of the invention in formula (I) were evaluated at a concentration ranging between 10^−6 and 10^−10 M; for this purpose they were added, at the same concentration, both to the lower pores and the upper pores of the microchamber. Evaluation of the ability of the compounds of the invention of formula (I) to inhibit the chemotaxis of human monocytes was carried out according to the method disclosed (Van Damme J. et al., Eur. J. Immunol., 19, 2367, 1989).

[2] = test system: CXCL8 induced chemotaxis of polymorphonucleate leukocytes (PMNs); test: CXCL8 induced chemotaxis of human PMNs; type: cell-based; conditions: Leukocyte; for inhibition at 0.001 µM: 10^−9 M
Protocol: as §1
In the CXCL8 induced chemotaxis assay human recombinant CXCL8 (Pepro Tech) was used as stimulating agents in the chemotaxis experiments: the lyophilized protein was dissolved in a volume of HBSS containing 0.2% bovin serum albumin (BSA) so thus to obtain a stock solution having a concentration of 10^−5 M to be diluted in HBSS to a concentration of 10^−9 M, for the chemotaxis assays.
as §2, §3, §4

[3] = test system: GRO-α induced chemotaxis of polymorphonucleate leukocytes (PMNs); test: GRO-α induced chemotaxis of human PMNs; type: cell-based; conditions: Leukocyte; for inhibition at 0.01 µM: 10^−8 M
Protocol: as §1
GRO-α induced chemotaxis inhibition was evaluated in an analogous assay.
as §2, §3, §4

[4] = Pharmacokinetic profile after intravenous and oral administration; type: in vivo; conditions: male, rat, plasma; for bioavailability: po; for half-life: read-out: t½ (converted)
Protocol: The pharmacokinetic profile of the compounds of formula (I) was evaluated in male mice or rats after intravenous and oral administration. The pharmacokinetic analysis was performed using plasmatic concentrations of the compounds at different times. The data were evaluated by Kinetica 2000™, Version 3.0 Software [InnaPhase Corporation, World headquarters, 1700 Race Street, Philadelphia, Pa. 19103 USA]. The pharmacokinetic parameters were calculated according the following formulas: Kel=elimination rate constant; t1/2=In2/Kel, AUC=AUC0n+AUCextra, where AUC0n=AUC from t=0 to t last (Trapezoidal Method) and AUCextra=extrapolated AUC=Clast/Kel; Clearance=D/AUC; Vd=Cl/Kel; Oral bioavailability F=(AUCp.o./AUCi.v.)*(Di.v./Dp.o.)*100.

[5] = Protein binding in rat plasma (ultrafiltration); type: in vitro ADME; conditions: 37° C.
Protocol: (§5) Protein Binding was determined as follows: Duplicate rat plasma samples of each compound at 50 μg/mL concentration were incubated at 37° C. for 20 minutes under gentle shaking. Then samples were ultrafiltrated through Centrifree® micropartition devices by centrifugation at 1500 g for 15 minutes. The ultrafiltrate was subjected to HPLC-MS/MS quantitative analysis (Column Luna C18, 150×2 mm ID 5 μm (Phenomenex), mobile phase: eluent A) 0.02M HCOO—NH4+ (pH 4.3 with HCOOH); eluent B) CH3OH).

[6] = Protein binding, experiments performed in mouse; type: in vitro ADME; conditions: plasma; values marked *: experiments performed in mouse
Protocol: as §5

[7] = Table 1, read-out: CXCL8 (% inhibition at 10^−9 M)
[8] = values marked *: 10^−7 M, Table 1, read-out: GRO-α (% of inhibition at 10^−7 M)

With `C[C@@](F)(C(=O)NCCCN1CCCC1)c1ccc(OS(=O)(=O)C(F)(F)F)cc1` [Compound 18] the inhibition at 0.01 µM [1] was 53 ± 5%.

Work on `C[C@H](NC(=O)C(C)(F)c1cccc(Nc2nc(C(F)(F)F)cs2)c1)C(=O)O` (stereo partly drawn) [Compound 16, (2S)-2-{[2-fluoro-2-(3-{[4-(trifluoromethyl)-1,3-thiazol-2-yl]amino}phenyl)propanoyl]amino}propanoic acid] yielded an inhibition at 0.001 µM [2, 7] of 50 ± 12%.

With `C[C@@](F)(C(=O)O)c1ccc(OS(=O)(=O)C(F)(F)F)cc1` [Compound 2, (2S)-2-fluoro-2-(4-{[(trifluoromethyl)sulfonyl]oxy}phenyl)propanoic acid] the melting point was 91 to 94 °C and the inhibition at 0.1 µM [3, 8] was 43 ± 15%.

Work on `CC(F)(C(N)=O)c1cccc(Nc2nc(C(F)(F)F)cs2)c1` (centres unmarked) [Compound 14, 2-fluoro-2-(3-{[4-(trifluoromethyl)-1,3-thiazol-2-yl]amino}phenyl)propanamide] yielded an inhibition at 0.01 µM [1] of 33 ± 5%, an inhibition at 0.01 µM ([3]; Table 2) of 55 ± 7% and an inhibition at 0.001 µM ([2]; Table 2, read-out: CSCL8 (% inhibition at 10^−9 M)) of 36 ± 12%.

Work on `C[C@](F)(C(=O)NS(C)(=O)=O)c1ccc(OS(=O)(=O)C(F)(F)F)cc1` [Compound 17, 4-{(1R)-1-fluoro-1-methyl-2-[(methylsulfonyl)amino]-2-oxoethyl}phenyl trifluoromethanesulfonate] yielded an inhibition at 0.01 µM ([3]; Table 1) of 57 ± 14%.

`C[C@@](F)(C(=O)NO)c1ccc(OS(=O)(=O)C(F)(F)F)cc1` [Compound 4, 4-[(1S)-1-fluoro-2-(hydroxyamino)-1-methyl-2-oxoethyl}phenyl trifluoromethanesulfonate] showed an inhibition at 0.01 µM ([3]; Table 1) of 55 ± 10%.

With `CC(O)(C(N)=O)c1ccc(OS(=O)(=O)C(F)(F)F)cc1` (centres unmarked) the Vd [4] was 1.33 L/kg, the clearance [4] was 0.65 mL/min/kg and the bioavailability [4] was 85%. It also gave a half-life [4] of 25 h and a fraction unbound at 20 min, 50 μg/mL [5] of 0.2.

For `CC(F)(C(=O)O)c1cccc(Nc2nc(C(F)(F)F)cs2)c1` (centres unmarked) [Compound 7], the inhibition at 0.01 µM ([3]; Table 1) was 60 ± 10% and the inhibition at 0.001 µM [2, 7] was 21 ± 6%.

In the case of `CC(F)(C(=O)O)c1cccc(C(=O)c2ccccc2)c1` (centres unmarked) [Compound 6, 2-(3-benzoylphenyl)-2-fluoropropanoic acid], the inhibition at 0.01 µM ([3]; Table 1) is reported as 42 ± 4%.

`C[C@](F)(C(N)=O)c1ccc(OS(=O)(=O)C(F)(F)F)cc1` [Compound 9, 4-[(1R)-2-amino-1-fluoro-1-methyl-2-oxoethyl)phenyl trifluoromethanesulfonate] gave an inhibition at 0.01 µM ([3]; Table 1) of 53 ± 9%.

Molecule `C[C@H](NC(=O)[C@](C)(F)c1ccc(OS(=O)(=O)C(F)(F)F)cc1)C(=O)O` [Compound 15, (2S)-2-{[(2R)-2-fluoro-2-(4-{[(trifluoromethyl)sulfonyl]oxy}phenyl)propanoyl]amino}propanoic acid] has an inhibition at 0.001 µM [2, 7] of 55 ± 8%.

`C[C@](F)(C(N)=O)c1ccc(OS(=O)(=O)C(F)(F)F)cc1` [drawing 24] gave a Vd [4] of 0.631 L/kg, a clearance [4] of 0.53 mL/min/kg and a bioavailability [4] of 46.8%. The half-life [4] was 13.8 h and the fraction unbound at 20 min, 50 μg/mL [6] was 0.05.

Molecule `C[C@@](F)(C(N)=O)c1ccc(OS(=O)(=O)C(F)(F)F)cc1` [drawing 25] has a Vd [4] of 1.47 L/kg, a clearance [4] of 2.28 mL/min/kg and a bioavailability [4] of 84.2%. The half-life [4] was 9.1 h and the fraction unbound at 20 min, 50 μg/mL [6] was 0.08.

Molecule `CC(F)(C(=O)O)c1ccc(OS(=O)(=O)C(F)(F)F)cc1` (centres unmarked) [Compound 1, 2-Fluoro-2-(4-{[(trifluoromethyl)sulfonyl]oxy}phenyl) propanoic acid] has an inhibition at 0.1 µM [3, 8] of 47 ± 10%.

In the case of `CC(F)(C(N)=O)c1ccc(OS(=O)(=O)C(F)(F)F)cc1` (centres unmarked) [Compound 8, 4-(2-amino-1-fluoro-1-methyl-2-oxoethyl)phenyl trifluoromethanesulfonate], the inhibition at 0.01 µM ([3]; Table 1) is reported as 57 ± 12% and the inhibition at 0.001 µM [2, 7] is reported as 50 ± 9%.

Molecule `CC(F)(C(N)=O)c1cccc(C(=O)c2ccccc2)c1` (centres unmarked) [Compound 13, 2-(3-benzoylphenyl)-2-fluoropropanamide] has an inhibition at 0.01 µM [1] of 47 ± 9%, an inhibition at 0.1 µM ([3]; marked *, no footnote in Table 2 (Table 1: * = 10^−7 M), read-out: GRO-α (% inhibition), value marked *) of 50 ± 12% and an inhibition at 0.1 µM ([2]; marked *, no footnote in Table 2 (Table 1: * = 10^−7 M), read-out: CSCL8 (% inhibition), value marked *) of 52 ± 8%.

`C[C@](F)(C(=O)NC[C@H]1CCCN1)c1ccc(OS(=O)(=O)C(F)(F)F)cc1` [Compound 19, 4-((1R)-1-fluoro-1-methyl-2-oxo-2-{[(2R)-pyrrolidin-2-ylmethyl]amino}ethyl)phenyl trifluoromethanesulfonate] showed an inhibition at 0.01 µM [1] of 45 ± 4%.

Molecule `CC(C)NC(=O)C(C)(F)c1ccc(OS(=O)(=O)C(F)(F)F)cc1` (centres unmarked) [Compound 12, 4-[1-fluoro-2-(isopropylamino)-1-methyl-2-oxoethyl]phenyl trifluoromethanesulfonate] has an inhibition at 0.1 µM [3, 8] of 45 ± 8%.

For `C[C@@](F)(C(N)=O)c1ccc(OS(=O)(=O)C(F)(F)F)cc1` [Compound 10, 4-[(1S)-2-amino-1-fluoro-1-methyl-2-oxoethyl)phenyl trifluoromethanesulfonate], the inhibition at 0.01 µM ([3]; Table 1) was 10 ± 12% and the inhibition at 0.001 µM [2, 7] was 50 ± 6%.

With `CONC(=O)C(C)(F)c1ccc(OS(=O)(=O)C(F)(F)F)cc1` (centres unmarked) [Compound 11, 4-[1-fluoro-2-(methoxyamino)-1-methyl-2-oxoethyl]phenyl trifluoromethanesulfonate] the inhibition at 0.01 µM ([3]; Table 1) was 7 ± 8% and the inhibition at 0.1 µM ([2]; values marked *: 10^−7 M, Table 1, read-out: CXCL8 (% of inhibition at 10^−7 M)) was 40 ± 10%.

For `C[C@](F)(C(=O)O)c1ccc(OS(=O)(=O)C(F)(F)F)cc1` [Compound 3, (2R)-2-fluoro-2-(4-{[(trifluoromethyl)sulfonyl]oxy}phenyl)propanoic acid], the melting point was 90 to 94 °C and the inhibition at 0.1 µM [3, 8] was 49 ± 6%.

With `C[C@@H](C(N)=O)c1ccc(OS(=O)(=O)C(F)(F)F)cc1` the Vd [4] was 0.55 L/kg, the clearance [4] was 3.67 mL/min/kg and the bioavailability [4] was 72%. For the same molecule, the half-life [4] was 1.9 h and the fraction unbound at 20 min, 50 μg/mL [5] was 0.06.

For `CN(O)C(=O)[C@@](C)(F)c1ccc(OS(=O)(=O)C(F)(F)F)cc1` [Compound 5, 4-[(1S)-1-fluoro-2-[hydroxyl(methyl)amino]-1-methyl-2-oxoethyl}phenyl trifluoromethane sulfonate], the inhibition at 0.01 µM ([3]; Table 1) was 40 ± 8%.

With `CC(F)(C(N)=O)c1ccc(OS(=O)(=O)C(F)(F)F)cc1` (centres unmarked) (as salt: methanesulfonate) [Compound 8, 4-(2-amino-1-fluoro-1-methyl-2-oxoethyl)phenyl trifluoromethanesulfonate] the melting point was 85 to 87 °C.

Source: patent publication US8440711B2, “2-aryl-2-fluoropropanoic acids and derivatives and pharmaceutical compositions containing them” (Dompe Pha.r.ma S.p.A., priority 2006, dated 2013)
